The results in this text go back to patent US8124356B2, “Methods of purifying zsig33” (ZymoGenetics, Inc., priority 1999, dated 2012).

Assay [1] relates to antral portion of the stomach. Kind of assay: Effects on gastrointestinal contractility (transducing crystals on antral portion of the stomach). The assay is classed as in vivo, Sprague-Dawley rats. The procedure:
Two male Sprague-Dawley rats, approximately 12 weeks old (Harlan, Indianapolis, Ind.) were anesthetized with urethane and their stomachs were exposed through a small abdominal incision. Two 2.4 mm transducing crystals (Sonometrics, Ontario, Canada) were placed on the antral portion of the stomach such that circular contractions could be monitored as a change in the distance between the two crystals. The crystals were attached with VETBOND TISSUE ADHESIVE (3M, St. Paul, Minn.).
10 ml of norepinephrine (NE) at 1 mM caused a reduction in the distance between the two crystals. The amplitude of the NE-induced decrease was approximately 50% of the acetylcholine-induced increase in distance. Both responses were transient.
A negative control of 10 ml of phosphate buffer solution (PBS) applied topically between the crystals had no effect.
A 14 amino acid zsig33 peptide (zsig33-1, as shown in Example 4) was dissolved in PBS and 10 ml was applied topically for a final concentration of 1 mg, 10 mg or 100 mg.

Assay [2] is described as follows: Effects on body weight, food intake and glucose clearance. The assay is classed as in vivo, ob/ob mice. To be noted: 1 mg/mouse orally twice daily for fourteen days, versus scrambled peptide. The procedure: Sixteen female ob/ob mice, 8 weeks old, (Jackson Labs, Bar Harbor, Me.) were adapted to a special 4 hour daily feeding schedule for two weeks. The were fed ad libitum from 7:30-11:30 am daily. After two weeks on the feeding schedule, the mice were divided into two groups of 8. One group was given 1.0 mg/mouse of zsig33-1 (14 amino acid peptide) and the other vehicle (a 14 amino acid scrambled sequence peptide) in […] sterile 0.1% BSQA by oral gavage just prior to receiving food, and at the end of the 4 hour feeding period. The mice were […] twice daily for fourteen days, during which time food intake and body weight was measured daily. On day 14, immediately after the second oral gavage of the zsig33-1 peptide, the mice were challenged orally with an 0.5 ml volume of 25% glucose. Retro-orbital bleeds were done to determine serum glucose levels immediately prior to administration of the zsig33-1 peptide or vehicle (t=30 min.), and also at 0, 1, 2, and 4 hours following the glucose challenge.

Assay [3] deals with duodenum, jejunum, kidney and other harvested tissues. Kind of assay: Binding studies of FITC-labeled zsig33 peptides in situ (tail vein injection, fluorescent microscopy of tissue sections). Type of assay: in vivo, Balb C male mice. The following applies: FITC-labeled peptide, 0.5 ml (0.5 mg) tail vein, circulated 15 minutes, microscopy at 495 nm. The procedure:
Ten week old Balb C male mice were anesthetized via intramuscular injection and tested for binding of zsig33 peptides in vivo.
Two peptides were tested: the first peptide, zsig33-1, (See Example 4) consisted of residues 24 to 37 of SEQ ID NO:2, and the second peptide, zsig33-2, consisted of residues 24 to 41 of SEQ ID NO:2. A single glycine was used as a negative control. Additionally, a “scrambled” negative control consisting of residues the first peptide which had been rearranged (SEQ ID NO:15) was also tested. The peptides and controls were coupled to fluorescein isothiocyantate (FITC, Molecular Probes, Eugene, Oreg.) in the following manner: The peptides, glycine control and FITC were dissolved in 0.1 M sodium bicarbonate at pH 9.0 to a concentration of 2.0 mg/ml for the peptides and glycine control and 5 mg/ml for FITC, avoiding exposure of the FITC to strong light. […] The buffer was changed daily and unbound FITC in the post-dialyzed buffer was measured by HPLC. […] Peptide- or glycine-bound FITC was determined by measuring the absorbance of the dialyzed FITC-bound material at 498 nm and dividing by the extinction coefficient of fluorescein, […]. The molar ratio of fluorescein to peptide (mole FITC/mole peptide) was then determined. […]

Assay [4] has as its system stomachs of fasted male Sprague-Dawley rats. Put plainly: Effects on gastric emptying (transit of phenol red through the stomach). Type of assay: in vivo. To be noted: 1 μg applied topically to the stomach five minutes after gavage, measured 30 minutes after the gavage. The procedure:
The effect of topically applied zsig33 peptide (amino acid 24 to 37 of SEQ ID NO: 2) on the transit of phenol red through the stomachs of fasted male Sprague-Dawley rats (Harlan, Indianapolis, Ind.) was evaluated. The rats (6 animals, 8 weeks old) were fasted 24 hrs prior to being anesthetized with urethane (0.5 ml/100 grams of 25% solution). After anesthetizing, the animals were orally gavaged with 1 ml of Phenol Red solution (50 mg/ml in 2% methylcellulose solution).
The stomach of each animal was exposed through a small abdominal incision and either 1 μg zsig33 peptide or a 14 amino acid control of a scrambled sequence peptide was applied topically to the stomach five minutes following the gavage. The amount of Phenol Red remaining in the stomach was determined by measuring optical density of the extracted stomach contents 30 minutes after the gavage.

The nature of assay [5]: Effects on glucose absorption after oral glucose challenge. The assay is classed as in vivo, ob/ob mice. The following applies: 100 mg orally, 30 minutes prior to an oral glucose challenge (0.5 ml of 25% glucose), serum glucose. The procedure: Eight female ob/ob mice, approximately 6 weeks old (Jackson Labs, Bar Harbor, Me.) were adapted to a 4 hour daily feeding schedule for two weeks. After two weeks on the feeding schedule, the mice were given 100 mg of a zsig33 peptide (zsig33-1, as shown in Example 4) in 100 ml sterile 0.1% BSA by oral gavage, immediately after their eating period (post-prandially). Thirty minutes later, the mice were challenged orally with a 0.5 ml volume of 25% glucose. Retroorbital bleeds were done to determine serum glucose levels. Blood was drawn prior to zsig33 dosing, prior to oral glucose challenge, and at 1, 2, 4, and 20 hours following the glucose challenge.

Turning to `NC[C@H](O)c1ccc(O)c(O)c1` [norepinephrine, reference compound], the “amplitude of the NE-induced decrease relative to the acetylcholine-induced increase in distance” value in assay [1] (10 ml of 1 mM applied topically) is given as “approximately 50%”. Moreover, the “change in the distance between the two crystals” value in assay [1] (10 ml of 1 mM applied topically to the stomach, anesthetized rats) is “reduction”.

As for “zsig33-1: 14 amino acid peptide corresponding to amino acid residue 24 (Gly) to amino acid residue 37 (Gln) of SEQ ID NO: 2 (GSSFLSPEHQRVQQ; listed as Homo sapiens)”, in assay [2], the daily body weight result is reported as “no affect” and the daily food intake entry is recorded as “no affect”. The “fluorescence in duodenum, jejunum and in the collecting ducts and convoluted tubules of the kidney compared to the glycine and "scrambled" controls” value in assay [3] is “increased fluorescence”. In assay [4], the “reduction of the amount of Phenol Red remaining in the stomach compared to a scrambled peptide” value was “approximately 25%”. The “change in crystal distance (contractions)” value in assay [1] (10 ml in PBS applied topically, 1 mg) is “sustained, rhythmic increase and decrease in crystal distance”. Also, in assay [1] (10 ml in PBS applied topically, 10 mg and 100 mg, compared with 1 mg), the “response in rate and amplitude of the contractions” value is “enhanced responses in both rate and amplitude”. Further, in assay [5], the post-prandial glucose absorption entry was “enhanced post-prandial glucose absorption”.

Turning to “zsig33-2: peptide consisting of residues 24 to 41 of SEQ ID NO:2 (GSSFLSPEHQRVQQRKES; listed as Homo sapiens)”, the “fluorescence in duodenum, jejunum and in the collecting ducts and convoluted tubules of the kidney compared to the glycine and "scrambled" controls” value in assay [3] is listed as “increased fluorescence”.
